In US11306101B2 (Celgene Corporation, priority 2019, dated 2022):

Target: T1, CK1α (Homo sapiens, UniProt P48729+Q96SW2)
T1 construct: expressed in transfected cells
Test: CK1α ePL degradation assay in MDS-L cells
Assay type: cell-based
Conditions: MDS-L cells expressing ePL-tagged CK1α; for DC50: concentration giving 50% CK1α degradation vs DMSO control; for Y: lowest measured CK1α level normalized to DMSO control
How it was run: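 Degradation efficiency is reported as Y value, the minimum CK1α level (percent of DMSO control) across doses. Readout used InCELL Hunter luminescent detection after MDS-L cell exposure at 37° C for stated times, doses 10 μM down to 0.0005 μM in 3-fold steps.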

T1 sequence (P48729 whole entry): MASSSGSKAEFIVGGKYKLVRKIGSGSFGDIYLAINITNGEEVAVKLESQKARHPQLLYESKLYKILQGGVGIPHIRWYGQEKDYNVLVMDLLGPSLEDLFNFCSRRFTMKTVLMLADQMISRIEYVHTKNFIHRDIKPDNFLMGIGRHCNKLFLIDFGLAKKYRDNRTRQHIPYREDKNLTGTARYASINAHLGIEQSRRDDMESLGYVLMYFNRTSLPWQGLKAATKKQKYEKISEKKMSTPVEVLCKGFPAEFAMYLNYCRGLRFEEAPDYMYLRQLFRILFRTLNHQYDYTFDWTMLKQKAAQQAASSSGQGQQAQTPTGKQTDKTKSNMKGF
T1 sequence (Q96SW2 whole entry): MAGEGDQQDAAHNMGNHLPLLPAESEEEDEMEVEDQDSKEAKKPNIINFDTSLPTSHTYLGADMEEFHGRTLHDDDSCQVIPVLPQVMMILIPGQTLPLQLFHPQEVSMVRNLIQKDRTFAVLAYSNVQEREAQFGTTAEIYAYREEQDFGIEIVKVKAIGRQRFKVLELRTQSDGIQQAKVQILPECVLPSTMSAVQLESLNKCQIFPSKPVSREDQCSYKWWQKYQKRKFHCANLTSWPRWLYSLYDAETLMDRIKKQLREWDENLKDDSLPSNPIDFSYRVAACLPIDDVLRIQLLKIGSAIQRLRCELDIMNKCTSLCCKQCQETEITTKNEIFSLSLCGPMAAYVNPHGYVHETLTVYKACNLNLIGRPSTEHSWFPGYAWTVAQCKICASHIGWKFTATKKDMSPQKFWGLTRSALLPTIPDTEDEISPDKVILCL
T1 sequence (Q16531 whole entry partner): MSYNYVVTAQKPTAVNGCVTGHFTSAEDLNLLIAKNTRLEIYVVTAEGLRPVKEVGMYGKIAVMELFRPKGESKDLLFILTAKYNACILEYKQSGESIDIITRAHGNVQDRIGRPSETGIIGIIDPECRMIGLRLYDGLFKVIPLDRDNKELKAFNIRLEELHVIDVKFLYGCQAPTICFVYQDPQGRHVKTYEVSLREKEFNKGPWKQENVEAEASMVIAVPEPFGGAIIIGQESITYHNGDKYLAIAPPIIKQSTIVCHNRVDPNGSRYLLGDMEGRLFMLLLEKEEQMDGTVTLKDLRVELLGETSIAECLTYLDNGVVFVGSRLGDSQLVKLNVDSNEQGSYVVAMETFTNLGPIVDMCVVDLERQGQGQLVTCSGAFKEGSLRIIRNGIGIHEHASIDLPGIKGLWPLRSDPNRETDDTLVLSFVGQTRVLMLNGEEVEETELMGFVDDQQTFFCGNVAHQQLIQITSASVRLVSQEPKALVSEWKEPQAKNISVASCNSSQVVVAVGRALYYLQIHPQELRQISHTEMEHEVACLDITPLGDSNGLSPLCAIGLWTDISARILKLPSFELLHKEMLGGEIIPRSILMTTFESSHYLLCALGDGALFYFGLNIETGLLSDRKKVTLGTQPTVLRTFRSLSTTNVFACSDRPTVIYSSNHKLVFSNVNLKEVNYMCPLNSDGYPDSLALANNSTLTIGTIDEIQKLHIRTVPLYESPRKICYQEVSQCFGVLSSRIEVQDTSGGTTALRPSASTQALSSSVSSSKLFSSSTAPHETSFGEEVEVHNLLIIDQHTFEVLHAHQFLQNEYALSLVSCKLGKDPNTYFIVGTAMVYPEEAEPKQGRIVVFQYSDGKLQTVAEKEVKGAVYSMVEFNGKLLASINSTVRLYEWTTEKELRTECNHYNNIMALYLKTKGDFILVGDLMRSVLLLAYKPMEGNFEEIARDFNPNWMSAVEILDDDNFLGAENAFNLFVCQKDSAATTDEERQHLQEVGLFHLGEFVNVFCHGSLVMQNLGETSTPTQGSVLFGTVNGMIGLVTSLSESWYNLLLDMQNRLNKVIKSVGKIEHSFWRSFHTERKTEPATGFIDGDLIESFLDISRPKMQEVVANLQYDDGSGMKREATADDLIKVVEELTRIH

DC50 [nM]	Y	SMILES
100 to 500	** (a Y value (shown as**) of 20%<Y≤35%)	O=C1CCC(N2Cc3cc(C(=O)N[C@H](c4ncccc4C(F)(F)F)C(F)(F)F)ccc3C2=O)C(=O)N1 (stereo partly drawn) [Example 116, 2-(2,6-dioxopiperidin-3-yl)-1-oxo-N-((R)-2,2,2-trifluoro-1-(3-(trifluoromethyl)pyridin-2-yl)ethyl)isoindoline-5-carboxamide]
< 100	* (a Y value (shown as *) of 0<Y≤20%)	C[C@H](NC(=O)c1ccc2c(c1)CN(C1CCC(=O)NC1=O)C2=O)c1ccc(F)cc1Cl (stereo partly drawn) [Example 59, N-((S)-1-(2-chloro-4-fluorophenyl)ethyl)-2-(2,6-dioxopiperidin-3-yl)-1-oxoisoindoline-5-carboxamide]
100 to 500	** (a Y value (shown as**) of 20%<Y≤35%)	CN1CCN(c2cccc([C@@H](NC(=O)c3ccc4c(c3)CN(C3CCC(=O)NC3=O)C4=O)C(F)(F)F)c2)CC1 (stereo partly drawn) [Example 209, 2-(2,6-dioxopiperidin-3-yl)-1-oxo-N-((R)-2,2,2-trifluoro-1-(3-(4-methylpiperazin-1-yl)phenyl)ethyl)isoindoline-5-carboxamide]
< 100	* (a Y value (shown as *) of 0<Y≤20%)	O=C1CCC(N2Cc3c(ccc(C(=O)N[C@H](C4CCCCC4)C(F)(F)F)c3F)C2=O)C(=O)N1 (stereo partly drawn) [Example 121, N-((R)-1-cyclohexyl-2,2,2-trifluoroethyl)-2-(2,6-dioxopiperidin-3-yl)-4-fluoro-1-oxoisoindoline-5-carboxamide]
< 100	* (a Y value (shown as *) of 0<Y≤20%)	O=C1CCC(N2Cc3cc(C(=O)N[C@H](c4cccc(C(F)(F)F)c4)C(F)(F)F)ccc3C2=O)C(=O)N1 (stereo partly drawn) [Example 52, 2-(2,6-dioxopiperidin-3-yl)-1-oxo-N-((R)-2,2,2-trifluoro-1-(3-(trifluoromethyl)phenyl)ethyl)isoindoline-5-carboxamide]
< 100	* (a Y value (shown as *) of 0<Y≤20%)	Cc1ccc([C@H](C)NC(=O)c2ccc3c(c2)CN(C2CCC(=O)NC2=O)C3=O)cc1 (some centres unmarked) [Example 7]
< 100	** (a Y value (shown as**) of 20%<Y≤35%)	O=C1CCC(N2Cc3c(ccc(C(=O)N[C@H](c4ccccc4OC4CC4)C(F)(F)F)c3F)C2=O)C(=O)N1 (stereo partly drawn) [Example 157, N-((R)-1-(2-cyclopropoxyphenyl)-2,2,2-trifluoroethyl)-2-(2,6-dioxopiperidin-3-yl)-4-fluoro-1-oxoisoindoline-5-carboxamide]
< 100	* (a Y value (shown as *) of 0<Y≤20%)	O=C1CC[C@@H](N2Cc3cc(C(=O)N[C@H](c4ccccc4)C(F)(F)F)ccc3C2=O)C(=O)N1 [Example 60, 2-((R)-2,6-dioxopiperidin-3-yl)-1-oxo-N-((R)-2,2,2-trifluoro-1-phenylethyl)isoindoline-5-carboxamide]
< 100	** (a Y value (shown as**) of 20%<Y≤35%)	C[C@@H](NC(=O)c1ccc2c(c1)CN(C1CCC(=O)NC1=O)C2=O)c1ccccc1C#N (stereo partly drawn) [Example 131, N-((R)-1-(2-cyanophenyl)ethyl)-2-(2,6-dioxopiperidin-3-yl)-1-oxoisoindoline-5-carboxamide]
< 100	* (a Y value (shown as *) of 0<Y≤20%)	COc1cc(F)ccc1[C@@H](NC(=O)c1ccc2c(c1)CN(C1CCC(=O)NC1=O)C2=O)C(F)(F)F (stereo partly drawn) [Example 67, 2-(2,6-dioxopiperidin-3-yl)-1-oxo-N-((R)-2,2,2-trifluoro-1-(4-fluoro-2-methoxyphenyl)ethyl)isoindoline-5-carboxamide]
500 to 1000	** (a Y value (shown as**) of 20%<Y≤35%)	CN1CCC([C@@H](NC(=O)c2ccc3c(c2)CN(C2CCC(=O)NC2=O)C3=O)C(F)(F)F)CC1 (stereo partly drawn) [Example 81, 2-(2,6-dioxopiperidin-3-yl)-1-oxo-N-((R)-2,2,2-trifluoro-1-(1-methylpiperidin-4-yl)ethyl)isoindoline-5-carboxamide]
< 100	* (a Y value (shown as *) of 0<Y≤20%)	O=C1CC[C@H](N2Cc3cc(C(=O)N[C@H](c4ccccc4)C(F)(F)F)ccc3C2=O)C(=O)N1 [Example 61, 2-((S)-2,6-dioxopiperidin-3-yl)-1-oxo-N-((R)-2,2,2-trifluoro-1-phenylethyl)isoindoline-5-carboxamide]
< 100	** (a Y value (shown as**) of 20%<Y≤35%)	Cc1cccc([C@@H](NC(=O)c2ccc3c(c2F)CN(C2CCC(=O)NC2=O)C3=O)C(F)(F)F)c1 (stereo partly drawn) [Example 134, 2-(2,6-dioxopiperidin-3-yl)-4-fluoro-1-oxo-N-((R)-2,2,2-trifluoro-1-m-tolylethyl)isoindoline-5-carboxamide]
100 to 500	** (a Y value (shown as**) of 20%<Y≤35%)	C[C@H](NC(=O)c1ccc2c(c1)CN(C1CCC(=O)NC1=O)C2=O)C1CC1 (some centres unmarked) [Example 5]
< 100	** (a Y value (shown as**) of 20%<Y≤35%)	C[C@H](NC(=O)c1ccc2c(c1)CN(C1CCC(=O)NC1=O)C2=O)c1ccc(F)cc1 (some centres unmarked) [Example 16]
< 100	* (a Y value (shown as *) of 0<Y≤20%)	C[C@H](NC(=O)c1ccc2c(c1)CN(C1CCC(=O)NC1=O)C2=O)c1ccc(Cl)cc1 (some centres unmarked) [Example 8]
< 100	** (a Y value (shown as**) of 20%<Y≤35%)	O=C1CCC(N2Cc3cc(C(=O)N[C@H](c4ccc(F)cn4)C(F)(F)F)ccc3C2=O)C(=O)N1 (stereo partly drawn) [Example 76, 2-(2,6-dioxopiperidin-3-yl)-1-oxo-N-((R)-2,2,2-trifluoro-1-(5-fluoropyridin-2-yl)ethyl)isoindoline-5-carboxamide]
< 100	* (a Y value (shown as *) of 0<Y≤20%)	O=C1CCC(N2Cc3cc(C(=O)N[C@H](c4ccccc4F)C(F)(F)F)ccc3C2=O)C(=O)N1 (stereo partly drawn) [Example 49, 2-(2,6-dioxopiperidin-3-yl)-1-oxo-N-((R)-2,2,2-trifluoro-1-(2-fluorophenyl)ethyl)isoindoline-5-carboxamide]
< 100	* (a Y value (shown as *) of 0<Y≤20%)	O=C1CCC(N2Cc3cc(C(=O)N[C@H](c4cccc(F)c4Cl)C(F)(F)F)ccc3C2=O)C(=O)N1 (stereo partly drawn) [Example 152, N-((R)-1-(2-chloro-3-fluorophenyl)-2,2,2-trifluoroethyl)-2-(2,6-dioxopiperidin-3-yl)-1-oxoisoindoline-5-carboxamide]
< 100	* (a Y value (shown as *) of 0<Y≤20%)	CC(C)[C@H](NC(=O)c1ccc2c(c1)CN(C1CCC(=O)NC1=O)C2=O)c1ncccc1Cl (stereo partly drawn) [Example 172, N-((S)-1-(3-chloropyridin-2-yl)-2-methylpropyl)-2-(2,6-dioxopiperidin-3-yl)-1-oxoisoindoline-5-carboxamide]
< 100	* (a Y value (shown as *) of 0<Y≤20%)	O=C1CCC(N2Cc3c(ccc(C(=O)N[C@H](c4ncc(F)cc4Cl)C(F)(F)F)c3F)C2=O)C(=O)N1 (stereo partly drawn) [Example 183, N-((R)-1-(3-chloro-5-fluoropyridin-2-yl)-2,2,2-trifluoroethyl)-2-(2,6-dioxopiperidin-3-yl)-4-fluoro-1-oxoisoindoline-5-carboxamide]

SMILES	DC50 [nM]	Y
C[C@H](NC(=O)c1cc2c(cc1F)C(=O)N(C1CCC(=O)NC1=O)C2)c1ccccc1 (stereo partly drawn) [Example 85, 2-(2,6-dioxopiperidin-3-yl)-6-fluoro-1-oxo-N-((S)-1-phenylethyl)isoindoline-5-carboxamide]	500 to 1000	*** (a Y value (shown as***) of 35%<Y<50%)
